Test results: publication PMC8861431, “Tissue Pharmacokinetic Properties and Bystander Potential of Hypoxia-Activated Prodrug CP-506 by Agent-Based Modelling” (Frontiers in Pharmacology, 2022)
Values joined by “and” are separate entries in the source; they are usually repeats but may differ in a detail not shown here. Identical values can stand only once.

Assays:
[1] = tested on: POR-R MCLs; assay: Multicellular layer (MCL) flux studies / (pro)drug transport model; assay type: in vitro ADME, human; conditions: for D s: diffusion coefficient in spheroid: Table 1
Procedure: (§1) The extravascular transport properties of CP-506 and its formed metabolites were investigated using a custom-designed diffusion apparatus, as described previously ([Hicks et al., 2006]). Briefly, MCL cultures were established by seeding 1 x 10^6 POR-R cells onto collagen-coated Millicell-CM inserts for 3 days. Established MCLs were placed at the interface of the two media-filled compartments of diffusion chambers. Diffusion chambers were placed in a 37°C water bath and gassed with a supraoxic (95% O2, 5% CO2) or anoxic (5% CO2, bal N2) mixture for at least 1 h prior to drug addition. Flux was initiated by the addition of internal standard ([^14C]-urea) and 20 µM CP-506 to the donor compartment. Samples (100 µl) were collected from both the donor and receiver compartments for up to 5 h thereafter. At each time point, a 25 µl aliquot was mixed with emulsifier-safe water-accepting scintillant and assayed for radioactivity using a Perkin Elmer Tricard 2910 TR liquid scintillation analyser. The remaining sample was treated with two volumes of ice-cold acetonitrile (containing 2 µM of the relevant deuterated internal standards) and stored at −80°C until LC-MS/MS analysis. Similar experiments were performed using collagen-coated inserts without MCLs to deduce the chemical stability and diffusion coefficient of CP-506 across the bare support membrane.
(§2) Drug transport in MCLs was modelled as a one-dimensional diffusion with reaction across four consecutive compartments (stirred donor, POR-R MCL, collagen-coated teflon support membrane and stirred receiver) using a custom designed MatLab routine ([Foehrenbacher et al., 2013a]). Model parameters were derived by fitting Eq. 1 and Eq. 2 to the measured concentration-time profile of internal standard [^14C]-urea, CP-506, CP-506H and CP-506M in MCL flux studies. The flux of CP-506 and its metabolites across POR-R MCLs was described using Fick’s second law with a reaction term: ∂CeN/∂t=DN∂^2CeN/∂x^2−klossNCeN− φ( kinNCeN− koutNCiN) (1) ∂CiN/∂t= kmet0(N−1)Ci(N−1)+φ(kinNCeN− koutNCiN)−kmet0NCiN (2) where C is the concentration of the diffusing substance at position x and time t in the extracellular (e) or intracellular (i) compartment, D is the diffusion coefficient through either a bare support membrane (without cells) (D suo ) or extracellular space of a POR-R MCL (D MCL ), k loss is the rate constant for first-order loss (instability) in culture medium, k in and k out are the rate constants for transmembrane transport and k met0 is the rate constant for intracellular metabolism and instability for each compound (N). For metabolites, N-1 represents the previous compound from which the current compound is produced by metabolism. Experimental data was fitted iteratively to derive a tissue diffusion coefficient (DMCL) and metabolic scaling factor (φ i ) to restrain parameter estimates from the cellular PK model (Kin, Kout, Kmet0). The diffusion coefficient for CP-506 across the bare support membrane (Dsup) was determined by solving Eq. 1 with a reaction term only for chemical instability. MCL thicknesses were estimated by fitting the measured [^14C]-urea concentrations to those predicted by Eq. 1 and Eq. 2 without instability or metabolism by using the known diffusion coefficient (DMCL) for [^14C]-urea in HCT-116 MCLs ([Wilson et al., 2004]). The diffusion coefficient (DMCL) for CP-506 in POR-R MCLs was then fitted from the measured concentrations in the donor and receiver compartments of supraoxic experiments by assuming one-directional diffusion in the extracellular space. The metabolic scaling factor (φ i ) was then fitted from the measured concentrations in the donor and receiver compartment of anoxic experiments by fixing parameter estimates to the diffusion coefficient (DMCL) from supraoxic experiments.

[2] = Diffusion across bare collagen-coated support membrane (without cells); assay type: in vitro ADME; conditions: for D M: diffusion coefficient in medium: Table 1
Procedure: as §1, §2

[3] = tested on: HCT-116 cells (PORko-G, HCT-116 WT, POR-R); assay: Cellular metabolism assay (LC-MS/MS of reduced metabolites); assay type: in vitro ADME, human; conditions: for Metabolite concentration, fold higher in POR-R cells than HCT-116 WT cells / Metabolite concentration, fold lower in PORko-G cells than HCT-116 WT cells: after 1 h treatment with 100 µM CP-506, anoxic
Procedure: Aerobic and anoxic conditions were achieved as described above. Cells (5 x 10^5 per well) were seeded with 350 µl medium in duplicate into 24-well plates and left to attach for 2 h in a humidified 37°C incubator. A working solution of CP-506 was prepared in culture medium to achieve a 100 µM concentration in each well after the addition of a 500 µl volume. Plates were exposed to drug for 1 h in a humidified 37°C incubator. Metabolism was then halted by the addition of two-volumes of ice-cold acetonitrile containing 2 µM of internal standard for each analyte. Samples were stored at −80°C until LC-MS/MS analysis.
The LC system for tandem MS consisted of an Agilent 1200 autosampler (4°C) and binary pump, a 3.0 × 50 mm, 1.8-micron Zorbax SB-C18 column (Agilent; PN: 827975-302) and 2.1 × 7 mm guard column (Alltech, IL) maintained at 35°C, at a pressure of <400 bar and flow rate of 0.3 ml/min. The mobile phase comprised a gradient of 0.01% formic acid in 80% acetonitrile - 20% water, v/v (solvent A), and 0.01% formic acid in water (solvent B). Initial mobile phase composition was 20% solvent A and 80% solvent B, increasing to 60% A (0–3 min) then 80% A (3–5.45 min), returning to initial conditions (5.5–6 min). Post-run time was 1 min, and the total run time was […]. Mass spectrometric detection was carried out using an Agilent 6410 triple quadrupole mass spectrometer equipped with a multimode ionization (MMI) source. The mass spectrometer was operated in electrospray positive ionization mode using multiple reaction monitoring (MRM), with Q1 & Q3 set to unit resolution ([…]). The electrospray ionization parameters, optimized for the parent molecular ion ([M+H]+) abundance were: drying gas temperature 325°C, vaporiser temperature 150°C, drying gas flow 5 L/min, nebuliser pressure 50 psi, capillary voltage 1.8 kV, Delta EMV 300 V. Ultra-pure nitrogen was used as collision gas. The divert valve feature of the Agilent 6410 triple quadrupole mass spectrometer was utilised to prevent the eluate from entering the ionisation source chamber during the first 0.5 min of each run. For CP-506 samples, positively charged ions representing the [M+H]+ for CP-506 and CP-506-D8 were collisionally dissociated to form specific product ions which were monitored in MS2 (unit resolution). The MRM transition, ionization mode, collision energy, dwell time, fragmentor voltage and retention time for all compounds is provided in Supplementary Table S2. Agilent MassHunter software (v.4.04.00) was used for data acquisition and chromatographic peak integration.

[4] = assumed equivalent to CP-506 for the active metabolites

Row | Compound | D s: diffusion coefficient in spheroid ([1]; DMCL fitted in POR-R MCLs under supraoxic conditions) | DMCL: diffusion coefficient across POR-R MCLs ([1]; Table S4, anoxia, fixed to the supraoxic value) | DMCL: diffusion coefficient across POR-R MCLs ([1]; Table S4, supraoxia) | DMCL: diffusion coefficient across POR-R MCLs ([1]; supraoxic experiments) | D M: diffusion coefficient in medium ([2]; Dsup fitted for bare support membranes under supraoxic conditions) | Dsup: diffusion coefficient across bare support membranes ([2]; anoxic (5% CO2, bal N2)) | Dsup: diffusion coefficient across bare support membranes ([2]; supraoxic (95% O2, 5% CO2)) | D s: diffusion coefficient in spheroid [1, 4] | D M: diffusion coefficient in medium [2, 4] | Metabolite concentration, fold higher in POR-R cells than HCT-116 WT cells [3] | Metabolite concentration, fold lower in PORko-G cells than HCT-116 WT cells [3] | Metabolite production suppressed in POR knockout relative to the POR-overexpressing cell line ([3]; anoxic, Figure 3A)
1 | CCN1CCN(C(=O)c2cc(N(CCBr)CCOS(C)(=O)=O)c(S(C)(=O)=O)cc2[N+](=O)[O-])CC1 [CP-506, 2-[(2-bromoethyl)-5-[(4-ethyl-1-piperazinyl)carbonyl]-2-(methylsulfonyl)-4-nitroanilino]ethyl methanesulfonate] | 1.93 × 10^−7 ± 1.8 × 10^−8 cm^2s^−1 | 1.93 (fixed) x 10^-6 cm^2 s^-1 | 1.93 ± 0.01 (6) x 10^-6 cm^2 s^-1 | 1.93 ± 0.011 x 10^−7 cm^2s^−1 | 1.32 × 10^−6 ± 0.19 × 10^−6 cm^2s^−1 | 0.717 ± 0.01 x 10^−6 cm^2 s^−1 and 0.717 ± 0.01 (3) x 10^−6 cm^2 s^−1 | 1.32 ± 0.19 x 10^−6 cm^2 s^−1 and 1.32 ± 0.19 (2) ^b x 10^−6 cm^2 s^−1 | – | – | – | – | –
2 | CCN1CCN(C(=O)c2cc(N(CCBr)CCOS(C)(=O)=O)c(S(C)(=O)=O)cc2NO)CC1 [CP-506H, 2-((2-bromoethyl)(5-(4-ethylpiperazine-1-carbonyl)-4-(hydroxyamino)-2-(methylsulfonyl)phenyl)amino)ethyl methanesulfonate] | – | – | – | – | – | – | – | 1.93 × 10^−7 ± 1.8 × 10^−8 cm^2s^−1 | 1.32 × 10^−6 ± 0.19 × 10^−6 cm^2s^−1 | 5.5 fold | – | –
3 | CCN1CCN(C(=O)c2cc(N(CCBr)CCOS(C)(=O)=O)c(S(C)(=O)=O)cc2N)CC1 [CP-506M, 2-((4-amino-5-(4-ethylpiperazine-1-carbonyl)-2-(methylsulfonyl)phenyl)(2-bromoethyl)amino)ethyl methanesulfonate] | – | – | – | – | – | – | – | 1.93 × 10^−7 ± 1.8 × 10^−8 cm^2s^−1 | 1.32 × 10^−6 ± 0.19 × 10^−6 cm^2s^−1 | – | 4.1 fold | –
4 | CCN1CCN(C(=O)c2cc(N(CCCl)CCCl)c(S(C)(=O)=O)cc2N)CC1 [CP-506M-Cl2, (2-Amino-5-(bis(2-chloroethyl)amino)-4-(methylsulfonyl)phenyl)(4-ethylpiperazin-1-yl)methanone] | – | – | – | – | – | – | – | 1.93 × 10^−7 ± 1.8 × 10^−8 cm^2s^−1 | 1.32 × 10^−6 ± 0.19 × 10^−6 cm^2s^−1 | 8.6 fold | 17.7 fold | 151 fold
